From paper PMC11436758, “Computer-aided drug design to generate a unique antibiotic family” (Nature Communications, 2024)
≈ marks a conversion by molar mass, not a printed value. Where “and” joins values, the source holds several entries; their conditions need not be identical. Equal entries are not always repeated. Entries after “also recorded” stand apart in the source; their conditions may differ.

Columns and labels:
MRSA (ATCC 33591) = experiment: Rabbit ischemic ear wound model of infection by MRSA, topical treatment; type: in vivo, New Zealand White rabbits; details: for % wound closure / wound size (mean) / Wound size (mm2): Fig 2c
Experimental: New Zealand White rabbits from Charles River were employed for this study. Both male and female rabbits were used; sample size prevented disaggregation of data by sex. Investigators were blinded to group allocation, data collection, and data analysis. Food and water were given ad libidum and animals were acclimatized for 7 days with photoperiods of alternating 12 h light and dark at 21 °C in relative humidity of 40–50%. The formulation for delivery of DNM compounds was Glaxal base (WellSpring Pharmaceutical Canada Corp., Oakville, Canada). Formulation was performed by dissolving compound in Glaxal base to give final concentrations of 1% or 2% DNM compound (w/v). The analgesic (Buprenex 0.02 mg/kg sc) and anesthesia (isoflurane (0.5–5% with oxygen carrier 0.5–2 L/min) were used as required during procedures. An ischemia wound healing model was conducted surgically. Each wound was inoculated with 50 μl of 2 × 10^7 CFU/mL MRSA (ATCC #33591) and dressed. After 1 day, wounds were treated with either 50 μl control cream containing vehicle or 50 μl cream containing compound daily. Wounds were assessed and observations recorded using the Draize scoring system. Digital photographs of each wound were obtained and documented.

[1] = Histopathology (H&E) of treated rabbit ischemic ear wounds, dermal toxicity; details: Suppl Fig 7, score per wound
Experimental: Wounds were excised, fixed, and routine H&E staining was performed. Wounds were examined for pathology and scored in a blinded manner.
Post-wounding, under anesthesia, animals were euthanized with an intravenous injection of Beuthanasia-D at a dosage of 150 mg/kg of body weight. Specimens including the entire wound, along with ~2–3 mm of the normal unwounded skin margins were harvested. Each ear wound specimen was sectioned into halves. For one half of the wound, the wound was placed into a container with 10% neutral buffered formalin and processed for routine histological evaluation. Wounds were scored on a scale of 0–4 at the wound site for erythema, edema, inflammation, granulation, angiogenesis, and epithelialization. Wounds were characterized in a blinded manner by a board-certified member of the College of American Pathologists.

[2] = tested on: 102 ATCC strains and clinical isolates of Staphylococcus, Streptomyces, and Enterococcus; experiment: MIC panel summary over all strains; type: cell-based; details: of 102 strains
Experimental: We also sought to determine if DNM0547 was bacteriostatic or bactericidal. Time kill experiments were carried out using increasing doses of DNM0547 against two different strains of MRSA.
(§1) The medium employed for the assay was Mueller Hinton II Broth (MHB II; Becton-Dickinson, Sparks, MD, USA). Agar plates used for the organisms were trypticase soy agar plus 5% sheep blood (BD; Sparks, MD, USA). MIC assay plates were prepared using the CLSI broth microdilution procedure. Automated liquid handlers (Multidrop 384, Biomek 2000 and Biomek FX) were used to conduct serial dilutions and liquid transfers. A standardized inoculum of each organism was prepared per CLSI methods. Suspensions were prepared to equal a 0.5 McFarland standard, followed by a 1:20 dilution in test media. The inocula were dispensed into sterile reservoirs divided by length (Beckman Colter) and the Biomek 2000 was used to inoculate the plates. Daughter plates were placed on the Biomek 2000 work surface in reverse orientation so that inoculation took place from low to high drug concentration. The Biomek 2000 delivered 10 μL of the diluted suspension into each well. These inoculations yielded a final cell concentration in the daughter plates of ~5 × 10^5 colony-forming units/mL in each well. The wells of the daughter plates ultimately contained 185 μL of broth, 5 μL of drug solution, and 10 μL of bacterial inoculum. Plates were covered with a sterile lid on the top plate, placed in plastic bags, and incubated at 35 °C for ~18 h. The microplates were viewed from the bottom using a plate viewer and the MIC was read. The MIC was recorded as the lowest concentration of drug that inhibited visible growth of the organism.

S. aureus (MRSA) = experiment: MIC, clinical and laboratory strains; type: cell-based
Experimental: as §1

S. aureus (MSSA) = experiment: MIC, clinical and laboratory strains; type: cell-based
Experimental: as §1

S. aureus (VISA) = experiment: MIC, clinical and laboratory strains; type: cell-based
Experimental: as §1

## C/C(=C\C(=O)OCCCCCCCCC(=O)O)C[C@@H]1OC[C@H](C[C@@H]2O[C@H]2[C@@H](C)[C@H](C)O)[C@@H](O)[C@H]1O [mupirocin]
MRSA (ATCC 33591); Fig 2b, individual wounds
  CFUs: 0 CFUs (6×) and 4120 CFUs
MRSA (ATCC 33591); Day 1
  % wound closure: 0%
  wound size (mean): 34.3 mm2
MRSA (ATCC 33591); Day 3
  % wound closure: 3.64%
  wound size (mean): 33.056 mm2
MRSA (ATCC 33591); Day 5
  wound size (mean): 31.872 mm2
MRSA (ATCC 33591); Day 7
  % wound closure: 10.3%
  wound size (mean): 30.776 mm2
MRSA (ATCC 33591); Day 10
  % wound closure: 22.68%
  wound size (mean): 26.526 mm2
MRSA (ATCC 33591); Day 14
  % wound closure: 43.29%
  wound size (mean): 19.45 mm2
MRSA (ATCC 33591); Day 18
  % wound closure: 53.8%
  wound size (mean): 15.838 mm2
MRSA (ATCC 33591); individual wounds, Day 1
  Wound size (mm2): 36.53 mm2 and 30.25 mm2 and 32.45 mm2 and 37.03 mm2 and 35.24 mm2
MRSA (ATCC 33591); individual wounds, Day 3
  Wound size (mm2): 33.98 mm2 and 27.23 mm2 and 29.57 mm2 and 36.33 mm2 and 38.17 mm2
MRSA (ATCC 33591); individual wounds, Day 5
  Wound size (mm2): 33.31 mm2 and 25.96 mm2 and 29.21 mm2 and 35.69 mm2 and 35.19 mm2
MRSA (ATCC 33591); individual wounds, Day 7
  Wound size (mm2): 31.43 mm2 and 25.29 mm2 and 28.29 mm2 and 34.94 mm2 and 33.93 mm2
MRSA (ATCC 33591); individual wounds, Day 10
  Wound size (mm2): 30.25 mm2 and 23.34 mm2 and 26.6 mm2 and 26.26 mm2 and 26.18 mm2
MRSA (ATCC 33591); individual wounds, Day 14
  Wound size (mm2): 23.68 mm2 and 17.17 mm2 and 19.28 mm2 and 18.84 mm2 and 18.28 mm2
MRSA (ATCC 33591); individual wounds, Day 18
  Wound size (mm2): 20.63 mm2 and 12.49 mm2 and 12.8 mm2 and 15.19 mm2 and 18.08 mm2
MRSA (ATCC 33591); topical 2%
  wound healing compared with control: did not alter wound healing from control; also recorded: not statistically significant
[1]
  Edema: 2
  Erythema: 2
  Inflammation: 3 and 4
[2]
  number of strains tested with MIC not ≤ 2 μg/mL: 26
S. aureus (MRSA); S. aureus (MRSA) 2167
  MIC: 0.12 µg/mL (≈ 0.24 µM)
S. aureus (MRSA); S. aureus (MRSA) 2168
  MIC: 0.25 µg/mL (≈ 0.499 µM)
S. aureus (MRSA); S. aureus (MRSA) 2169
  MIC: 0.25 µg/mL (≈ 0.499 µM)
S. aureus (MRSA); S. aureus (MRSA) 2170
  MIC: 0.25 µg/mL (≈ 0.499 µM)
S. aureus (MRSA); S. aureus (MRSA) 2171
  MIC: 0.25 µg/mL (≈ 0.499 µM)
S. aureus (MRSA); S. aureus (MRSA) 2293
  MIC: 0.25 µg/mL (≈ 0.499 µM)
S. aureus (MRSA); S. aureus (MRSA) 2294
  MIC: 0.25 µg/mL (≈ 0.499 µM)
S. aureus (MRSA); S. aureus (MRSA) 2295
  MIC: 0.25 µg/mL (≈ 0.499 µM)
S. aureus (MRSA); S. aureus (MRSA) 2296
  MIC: 0.25 µg/mL (≈ 0.499 µM)
S. aureus (MRSA); S. aureus (MRSA) 2297
  MIC: 0.25 µg/mL (≈ 0.499 µM)
S. aureus (MRSA); S. aureus (MRSA) 3880
  MIC: > 16 µg/mL
S. aureus (MRSA); S. aureus (MRSA) 5373
  MIC: 1 µg/mL (≈ 2 µM)
S. aureus (MRSA); S. aureus (MRSA) 5666
  MIC: 1 µg/mL (≈ 2 µM)
S. aureus (MRSA); S. aureus (MRSA) 5702
  MIC: 1 µg/mL (≈ 2 µM)
S. aureus (MRSA); S. aureus (MRSA) 5999
  MIC: 1 µg/mL (≈ 2 µM)
S. aureus (MRSA); S. aureus (MRSA) 6165
  MIC: 1 µg/mL (≈ 2 µM)
S. aureus (MRSA); S. aureus (MRSA) 6169
  MIC: 0.5 µg/mL (≈ 0.999 µM)
S. aureus (MRSA); S. aureus (MRSA) 6174
  MIC: 1 µg/mL (≈ 2 µM)
S. aureus (MRSA); S. aureus (MRSA) 6311
  MIC: 1 µg/mL (≈ 2 µM)
S. aureus (MRSA); S. aureus (MRSA) 6312
  MIC: 1 µg/mL (≈ 2 µM)
S. aureus (MRSA); S. aureus (MRSA) 6313
  MIC: 1 µg/mL (≈ 2 µM)
S. aureus (MRSA); S. aureus (MRSA) 6315
  MIC: 1 µg/mL (≈ 2 µM)
S. aureus (MRSA); S. aureus (MRSA) 6320
  MIC: 1 µg/mL (≈ 2 µM)
S. aureus (MRSA); S. aureus (MRSA) 6498
  MIC: 1 µg/mL (≈ 2 µM)
S. aureus (MRSA); S. aureus (MRSA) 6501
  MIC: 1 µg/mL (≈ 2 µM)
S. aureus (MRSA); S. aureus (MRSA) 6505
  MIC: 1 µg/mL (≈ 2 µM)
S. aureus (MRSA); S. aureus (MRSA) 6506
  MIC: 1 µg/mL (≈ 2 µM)
S. aureus (MRSA); S. aureus (MRSA) NRS382/2119
  MIC: 1 µg/mL (≈ 2 µM)
S. aureus (MRSA); S. aureus (MRSA) NRS383/2120
  MIC: > 16 µg/mL
S. aureus (MRSA); S. aureus (MRSA) NRS384/2011
  MIC: 1 µg/mL (≈ 2 µM)
S. aureus (MSSA); S. aureus (MSSA) 2127
  MIC: > 16 µg/mL
S. aureus (MSSA); S. aureus (MSSA) 6167
  MIC: 1 µg/mL (≈ 2 µM)
S. aureus (MSSA); S. aureus (MSSA) 6168
  MIC: 2 µg/mL (≈ 3.99 µM)
S. aureus (MSSA); S. aureus (MSSA) 6170
  MIC: 2 µg/mL (≈ 3.99 µM)
S. aureus (MSSA); S. aureus (MSSA) 6316
  MIC: 2 µg/mL (≈ 3.99 µM)
S. aureus (MSSA); S. aureus (MSSA) 6317
  MIC: 1 µg/mL (≈ 2 µM)
S. aureus (MSSA); S. aureus (MSSA) 6318
  MIC: 2 µg/mL (≈ 3.99 µM)
S. aureus (MSSA); S. aureus (MSSA) 6499
  MIC: 1 µg/mL (≈ 2 µM)
S. aureus (MSSA); S. aureus (MSSA) 6500
  MIC: 1 µg/mL (≈ 2 µM)
S. aureus (MSSA); S. aureus (MSSA) 6502
  MIC: 1 µg/mL (≈ 2 µM)
S. aureus (VISA); S. aureus (VISA) 1724
  MIC: 0.25 µg/mL (≈ 0.499 µM)
S. aureus (VISA); S. aureus (VISA) 2012
  MIC: 1 µg/mL (≈ 2 µM)
S. aureus (VISA); S. aureus (VISA) 2013
  MIC: 0.25 µg/mL (≈ 0.499 µM)
S. aureus (VISA); S. aureus (VISA) 2014
  MIC: 0.5 µg/mL (≈ 0.999 µM)
S. aureus (VISA); S. aureus (VISA) 2015
  MIC: 0.06 µg/mL (≈ 0.12 µM)
S. aureus (VISA); S. aureus (VISA) 2016
  MIC: 0.25 µg/mL (≈ 0.499 µM)
S. aureus (VISA); S. aureus (VISA) 2017
  MIC: 0.5 µg/mL (≈ 0.999 µM)
S. aureus (VISA); S. aureus (VISA) 2018
  MIC: 0.12 µg/mL (≈ 0.24 µM)
S. aureus (VISA); S. aureus (VISA) 2019
  MIC: 4 µg/mL (≈ 7.99 µM)
S. aureus (VISA); S. aureus (VISA) 2123
  MIC: 0.25 µg/mL (≈ 0.499 µM)
S. aureus (VISA); S. aureus (VISA) NRS1/1723
  MIC: 0.25 µg/mL (≈ 0.499 µM)
